Reference: patent publication US6379670B1, “Methods for treatment of multiple sclerosis using peptide analogs of human myelin basic protein” (Neurocrine Biosciences, Inc., priority 1994, dated 2002)
Non-standard residues stand in square brackets, D forms with d. No end group written: not given here.

Assays:
[1] = tested on: T cell cultures from multiple sclerosis patients; test: Th2/Th1 (IL-13/IFN-γ) activity of T cell cultures of MS patients by dose group; format: in vivo, human; settings: 1, 5 and 20 mg dose groups, weeks 3, 5 and 8; most prominently in the 5 and 20 mg dose groups, FIG. 34
Method: T cell analyses (cytokine production) were performed at Week 1 (pre-dosing), at Week 3 (=just prior to third dose), at Week 5 (1 week after last dose) and Week 8 (4 weeks after last dose). Tritiated thymidine uptake was measured using a beta scintillation counter (Topcount, Packard).
Interferon-γ(marker for Th1 activity) and IL-13 (marker for Th2 activity) were measured by Enzyme-Linked Immuno-Assay (ELISA) in T cell culture supernatants collected prior to [^3H]-thymidine incorporation (proliferation assay).
To measure IFN-γ produced by T cell cultures, a sandwich ELISA method was employed. Microtiter plates were coated with 2 μg/ml capture antibody (Pharmingen, San Diego) in 0.1 M NaHCO3 (pH=8.2) overnight at 4° C. Plates were then incubated with blocking buffer (1% solution [w/v] of casein [Sigma] in water, pH=8.2) for at least 30 minutes at room temperature to block non-specific binding sites. […] The reaction was stopped by the addition of 0.2N H2SO4 and absorbance at 450 nm was determined using a microplate spectrophotometer (Molecular Dynamics, Sunnyvale, Calif., USA). […]
To measure IL-13 produced by T cell cultures, a sandwich ELISA method was employed. […] The reaction was stopped by the addition of 0.2N H2SO4 and absorbance at 450 nm was determined using a microplate spectrophotometer (Molecular Dynamics, Sunnyvale, Calif., USA). […]

[2] = tested on: draining lymph node T cells of SJL mice; test: Induction of Th2 response in SJL mice, ex vivo lymph node cell proliferation; parameters: species or system mouse
Method: SJL/J female mice (3 per group) were injected weekly on days 0, 7, 14 and 21 subcutaneously with 20 mg/kg of NBI-5788 in the flanks. On day 28, the mice were sacrificed, the draining lymph node removed, a single cell suspension was made and the ability of the cells to proliferate in response to 25 μM NBI-5788 was determined. The data, shown in FIG. 28, represent the mean of triplicate wells.

[3] = tested on: Dr2b-restricted T cell clone 5F6; test: Cytokine production (TNF-α, IFN-γ) by T cell clone 5F6, EIA; format: cell-based, human
Method: As discussed in detail below, the production of cytokines may also be assessed. In particular, TNF-α and IFN-γ production are especially interesting. These pro-inflammatory cytokines are thought to play a role in the pathogenesis of the disease. Briefly, T cell clone is incubated in the presence of stimulating MBP peptide and peptide analog or control peptide (SWM) or medium only. After a 24 hour incubation, the levels of TNF-α and IFN-γ in the supernatant are determined using commercially available EIA kits (Endogen, Cambridge, Mass.).
The ability of the peptide analog ligand to influence cytokine production was next measured. The Dr2b-restricted T cell clone 5F6 was incubated in the presence of 3 μM MBP peptide with either 10 μM of NBI-5788 (SEQ ID NO:7) or SWM or medium only. As a control, cells were cultured in the presence of medium alone. After 24 hours, supernatants were removed and the levels of tumor necrosis factor alpha (TNF-α) and interferon-y (IFN-γ) determined using commercially available EIA kits.

**Q.** For “MBP(83-99) (83E>a, 84N>K, 89F>L, and 91K>A) ([dA]KPVVHLFANIVTPRTP) [NBI-5788]”, which “ratio of overall Th2-type to overall Th1-type activities (IL-13/IFN-γ)” value [1] is on record?
**A.** clear shift to an overall Th2 activity

**Q.** What about the “immune response induced by repeated dosing” value ([2]; 20 mg/kg subcutaneously on days 0, 7, 14 and 21, ex vivo proliferation to 25 μM NBI-5788, FIG. 28) of the same substance?
**A.** induces a Th2 response

**Q.** What about the “response with successive weekly doses” value ([2]; four doses at weekly intervals) of the same substance?
**A.** stronger response after each subsequent dose

**Q.** What about the “effect on MBP-stimulated production of TNF-α and IFN-γ” value ([3]; 10 μM peptide with 3 μM MBP peptide, to approximately levels with medium only) of the same substance?
**A.** dramatically inhibited the production of both pro-inflammatory cytokines

**Q.** What about the “stimulation of cytokine production over background by the analog itself” value ([3]; even at concentrations of 50 μM (data not shown)) of the same substance?
**A.** None
